Reference: patent US6818739B2, “Somatostatins” (NDSU Research Foundation, priority 1999, dated 2004)
Values belong to the molecule of their own block, whether it stands above or below them. Ends that are not written are not given here.

Key:
[1] = test system: goldfish pituitary fragments; conditions: goldfish pituitary fragments in vitro; Marchant et al. 1989; cited from earlier work
rainbow trout = conditions: in rainbow trout; Eilertson et al. 1993; cited from earlier work
[2] = biological target: T1, human somatostatin receptor subtype 1 (Homo sapiens, UniProt P30872); test: Radio-receptor assay: competitive binding of somatostatins to cloned somatostatin receptor; conditions: microsomes from COS-7 cells transiently expressing the human SS type 1 receptor; compared with mammalian SS-14 and mammalian SS-28; FIG. 8
T1 construct: expressed in transfected cells; host or cells: COS-7 cells, transient transfection with pCMV6b expression vector; microsomal membranes
Description: Somatostatin receptor cDNA was cloned into an expression vector, transfected into a eukaryotic cell line, and expressed as a peptide on the cell's surface to characterized the binding properties of the receptor for various somatostatin ligands.
Human somatostatin receptor subtype I cDNA was graciously obtained from Dr. Graeme Bell at the University of Chicago. Clones were prepared substantially as described in Yamada et al., Proc. Natl. Acad. Sci. USA, 89, 251-255 (1992). Briefly, a cDNA library was created by inserting total cDNA into a cloning vector. Clones containing the cDNA inserts were digested with restriction endonuclease Bg1II and subsequently subcloned in the pCMV6b expression vector (Stratagene Zap Express cDNA Synthesis Kit, La Jolla, Calif.). The resulting expression vector containing the cloned somatostatin receptor was transfected into COS-7 (American Tissue Culture Collection, Manassas, Va.) cells for peptide expression.
Twenty-four hours after splitting cells (e.g., COS-7) into new T-75 culture flasks (Nalgene, Rochester, N.Y.), the cells were washed with phosphate-buffered saline (PBS) and Tris-buffered saline-dextrose (TBS-D) solutions. […]
All tubes were incubated for 30-60 minutes at 37° C. while shaking. […] The resulting pellets were counted in a gamma counter to determine the binding properties of the various ligands to the somatostatin receptor.

[3] = biological target: T2, cloned human somatostatin receptor subtype 1 (human, UniProt P30872 1-391); test: radio-receptor competition assay, displacement of 125I-[Tyr1]-SS-14 from COS-7 microsomal membranes
T2 construct: whole, on cells; Transiently expressed in COS-7 cells; The assay used microsomal membrane preparations of these cells, not intact cells; also called human SS type 1 receptor; human somatostatin receptor type 1
T2 sequence (P30872 whole entry): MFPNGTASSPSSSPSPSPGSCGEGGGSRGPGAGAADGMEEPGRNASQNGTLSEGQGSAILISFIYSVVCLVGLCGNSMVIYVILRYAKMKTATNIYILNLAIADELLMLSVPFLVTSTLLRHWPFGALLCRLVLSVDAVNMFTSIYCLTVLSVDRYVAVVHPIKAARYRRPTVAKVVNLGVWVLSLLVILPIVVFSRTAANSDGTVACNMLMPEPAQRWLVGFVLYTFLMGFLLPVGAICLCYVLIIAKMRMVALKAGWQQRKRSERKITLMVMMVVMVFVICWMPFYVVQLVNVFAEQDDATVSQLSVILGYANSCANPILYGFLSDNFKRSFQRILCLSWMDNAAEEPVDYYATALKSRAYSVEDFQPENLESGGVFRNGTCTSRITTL
Description: Briefly, cell membranes, 25–1000 µg, were added to two sets of tubes labeled for total and non-specific binding (in triplicate) containing the following reagents in a final volume of 300 µl.
All tubes were incubated for 30–60 minutes at 37° C. while shaking. Reactions were stopped by adding 1 ml of ice-cold assay buffer and centrifuged at 20,000×g for 15 minutes. The supernatant is aspirated off. The resulting pellets were washed once with ice-cold assay buffer and centrifuged again at 20,000×g for 15 minutes. Again, the supernatant was aspirated off. The resulting pellets were counted in a gamma counter to determine the binding properties of the various ligands to the somatostatin receptor.

T1 sequence (P30872 whole entry): as above

affinity of the human somatostatin receptor type 1 for the ligand (inhibition of binding of 125I-[Tyr1]-SS-14) [2]: greater affinity
Molecule: salmonid SS-25: 25 amino acid PPSS-II″ proprotein containing [Tyr7, Gly10]-SS-14 at its C-terminus; synthetic (SVDNLPPRERKAGCKNFYWKGFTSC; ends and bridges not checked; cysteine pairing not given here)
ability to inhibit the release of growth hormone [1]: no effect
inhibition of insulin (rainbow trout): inhibited insulin

binding result [3]: binds
B1: mammalian SS-28 (peptide)
peptide: SANSNPAMAPRERKAGCKNFFWKTFTSC

More lines, now with the values behind:

Molecule: Ala-Gly-Cys-Lys-Asn-Phe-Phe-Trp-Lys-Thr-Phe-Thr-Ser-Cys [SS-14]
ability to inhibit the release of growth hormone [1]: equipotent
inhibition of insulin (rainbow trout): did not

Molecule: Ser-Ala-Asn-Ser-Asn-Pro-Ala-Met-Ala-Pro-Arg-Glu-Arg-Lys-Ala-Gly-Cys-Lys-Asn-Phe-Phe-Trp-Lys-Thr-Phe-Thr-Ser-Cys (SANSNPAMAPRERKAGCKNFFWKTFTSC; listed as Homo sapiens) [SS-28]
ability to inhibit the release of growth hormone [1]: equipotent
